{"source": "ChEMBL document CHEMBL5649166", "about": "“RIP3 induces apoptosis independent of pronecrotic kinase activity” (Mol Cell, 2014)", "key": {"[1]": {"biological_target": "T1, Ephrin type-A receptor 8 (Homo sapiens) (UniProt P29322)", "T1 sequence (whole entry)": "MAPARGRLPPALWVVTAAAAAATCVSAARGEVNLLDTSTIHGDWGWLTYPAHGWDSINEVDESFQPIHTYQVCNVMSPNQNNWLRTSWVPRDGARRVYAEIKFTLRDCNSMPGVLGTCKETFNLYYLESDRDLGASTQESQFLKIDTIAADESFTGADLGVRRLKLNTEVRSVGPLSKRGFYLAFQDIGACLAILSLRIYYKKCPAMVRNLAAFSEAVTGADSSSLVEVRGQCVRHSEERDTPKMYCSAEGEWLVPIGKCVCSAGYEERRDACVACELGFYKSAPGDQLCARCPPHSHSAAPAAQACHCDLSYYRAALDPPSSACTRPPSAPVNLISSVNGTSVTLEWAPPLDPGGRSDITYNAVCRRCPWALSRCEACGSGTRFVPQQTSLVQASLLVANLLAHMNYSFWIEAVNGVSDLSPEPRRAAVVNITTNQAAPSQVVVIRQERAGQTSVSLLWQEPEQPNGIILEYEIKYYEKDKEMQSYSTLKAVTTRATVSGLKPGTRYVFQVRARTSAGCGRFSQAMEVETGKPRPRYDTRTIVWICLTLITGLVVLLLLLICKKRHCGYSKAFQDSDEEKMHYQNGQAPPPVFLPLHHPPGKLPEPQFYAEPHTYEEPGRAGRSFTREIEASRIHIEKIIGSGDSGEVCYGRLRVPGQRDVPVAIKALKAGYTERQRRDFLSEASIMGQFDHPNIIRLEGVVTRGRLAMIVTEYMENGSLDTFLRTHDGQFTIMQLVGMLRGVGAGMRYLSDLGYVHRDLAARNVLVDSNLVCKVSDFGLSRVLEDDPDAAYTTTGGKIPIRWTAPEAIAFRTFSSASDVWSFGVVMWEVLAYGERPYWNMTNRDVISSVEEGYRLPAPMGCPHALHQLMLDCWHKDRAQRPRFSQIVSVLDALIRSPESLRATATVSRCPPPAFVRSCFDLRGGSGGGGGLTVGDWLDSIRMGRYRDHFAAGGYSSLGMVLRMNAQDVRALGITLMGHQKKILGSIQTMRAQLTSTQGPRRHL", "assay": "Inhibition of human EPHA8 using poly[Glu:Tyr] (4:1) as substrate at 1 uM in presence of 32P-ATP by Hotspot assay relative to control; values are per cent of control"}, "[2]": {"biological_target": "Protein kinase C delta type (Homo sapiens) (UniProt Q05655)", "sequence (Q05655 whole entry, looked up)": "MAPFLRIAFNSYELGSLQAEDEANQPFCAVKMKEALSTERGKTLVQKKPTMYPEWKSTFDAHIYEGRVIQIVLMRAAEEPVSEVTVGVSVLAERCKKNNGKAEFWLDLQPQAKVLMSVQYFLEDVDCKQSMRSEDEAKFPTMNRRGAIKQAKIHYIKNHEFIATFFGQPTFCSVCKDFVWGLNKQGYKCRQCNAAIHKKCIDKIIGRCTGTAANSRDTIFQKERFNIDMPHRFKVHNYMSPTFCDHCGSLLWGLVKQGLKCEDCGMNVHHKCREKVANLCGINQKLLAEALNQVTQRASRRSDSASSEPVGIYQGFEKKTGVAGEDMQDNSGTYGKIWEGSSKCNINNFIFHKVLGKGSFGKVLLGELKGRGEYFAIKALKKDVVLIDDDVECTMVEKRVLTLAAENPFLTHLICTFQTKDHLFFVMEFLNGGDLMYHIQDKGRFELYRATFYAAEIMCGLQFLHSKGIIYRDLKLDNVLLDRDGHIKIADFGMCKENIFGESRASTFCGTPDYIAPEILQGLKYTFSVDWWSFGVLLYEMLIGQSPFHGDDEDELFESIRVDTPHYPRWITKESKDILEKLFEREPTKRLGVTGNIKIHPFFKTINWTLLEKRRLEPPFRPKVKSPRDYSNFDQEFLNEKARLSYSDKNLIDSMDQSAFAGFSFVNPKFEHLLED", "assay": "Inhibition of human PKCd using ERMRPRKRQGSVRRRV as substrate at 1 uM in presence of 32P-ATP by Hotspot assay relative to control; values are per cent of control"}, "[3]": {"biological_target": "Dual specificity protein kinase CLK2 (Homo sapiens) (UniProt P49760)", "sequence (P49760 whole entry, looked up)": "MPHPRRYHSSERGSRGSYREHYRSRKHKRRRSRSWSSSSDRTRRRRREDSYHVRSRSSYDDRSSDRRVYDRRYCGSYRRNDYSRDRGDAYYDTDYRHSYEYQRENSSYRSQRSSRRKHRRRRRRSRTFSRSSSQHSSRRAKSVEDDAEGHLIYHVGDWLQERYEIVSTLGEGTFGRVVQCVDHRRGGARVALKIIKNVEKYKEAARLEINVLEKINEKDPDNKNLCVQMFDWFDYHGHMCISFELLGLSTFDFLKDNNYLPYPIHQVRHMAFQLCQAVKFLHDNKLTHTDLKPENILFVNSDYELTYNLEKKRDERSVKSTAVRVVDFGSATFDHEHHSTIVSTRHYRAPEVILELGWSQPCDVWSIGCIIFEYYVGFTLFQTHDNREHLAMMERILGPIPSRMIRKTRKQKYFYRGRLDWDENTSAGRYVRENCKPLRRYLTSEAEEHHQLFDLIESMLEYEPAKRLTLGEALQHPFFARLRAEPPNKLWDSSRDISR", "assay": "Inhibition of human CLK2 using myelin basic protein as substrate at 1 uM in presence of 32P-ATP by Hotspot assay relative to control; values are per cent of control"}, "[4]": {"biological_target": "PAS domain-containing serine/threonine-protein kinase (Homo sapiens) (UniProt Q96RG2)", "assay": "Inhibition of human PASK using KKLNRTLSFAEPG as substrate at 1 uM in presence of 32P-ATP by Hotspot assay relative to control; values are per cent of control"}, "[5]": {"biological_target": "Epidermal growth factor receptor (Homo sapiens) (UniProt P00533)", "sequence (P00533 whole entry)": "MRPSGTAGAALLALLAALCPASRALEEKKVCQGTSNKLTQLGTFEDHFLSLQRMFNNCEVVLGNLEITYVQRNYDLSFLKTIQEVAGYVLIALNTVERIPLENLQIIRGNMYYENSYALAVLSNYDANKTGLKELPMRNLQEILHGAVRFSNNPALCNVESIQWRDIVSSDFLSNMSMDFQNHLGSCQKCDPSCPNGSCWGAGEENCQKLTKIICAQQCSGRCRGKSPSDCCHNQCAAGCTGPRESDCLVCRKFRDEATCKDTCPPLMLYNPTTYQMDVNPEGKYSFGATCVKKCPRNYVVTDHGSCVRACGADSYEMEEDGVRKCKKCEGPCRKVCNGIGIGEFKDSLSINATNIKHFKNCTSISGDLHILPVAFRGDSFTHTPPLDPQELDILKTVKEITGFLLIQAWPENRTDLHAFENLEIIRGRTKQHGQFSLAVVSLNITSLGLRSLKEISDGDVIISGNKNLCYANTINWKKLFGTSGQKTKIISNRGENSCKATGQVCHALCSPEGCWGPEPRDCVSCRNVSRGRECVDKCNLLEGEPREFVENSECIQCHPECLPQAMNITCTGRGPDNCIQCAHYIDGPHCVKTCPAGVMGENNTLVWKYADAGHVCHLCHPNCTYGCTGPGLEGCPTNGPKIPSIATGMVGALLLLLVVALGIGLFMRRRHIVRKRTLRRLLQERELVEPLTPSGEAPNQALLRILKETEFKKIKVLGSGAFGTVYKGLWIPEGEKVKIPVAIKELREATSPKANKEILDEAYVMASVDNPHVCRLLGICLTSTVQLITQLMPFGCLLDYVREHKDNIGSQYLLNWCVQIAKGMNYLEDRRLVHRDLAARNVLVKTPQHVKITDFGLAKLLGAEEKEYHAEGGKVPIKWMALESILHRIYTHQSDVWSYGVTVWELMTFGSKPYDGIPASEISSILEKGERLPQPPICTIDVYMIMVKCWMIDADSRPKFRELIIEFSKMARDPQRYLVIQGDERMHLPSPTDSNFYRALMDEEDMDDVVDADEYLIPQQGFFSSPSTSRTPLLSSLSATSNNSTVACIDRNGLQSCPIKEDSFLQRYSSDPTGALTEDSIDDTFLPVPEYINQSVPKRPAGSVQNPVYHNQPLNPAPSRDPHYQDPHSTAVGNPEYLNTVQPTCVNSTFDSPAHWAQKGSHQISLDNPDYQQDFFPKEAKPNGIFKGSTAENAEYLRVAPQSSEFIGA", "assay": "Inhibition of human EGFR using poly[Glu:Tyr] (4:1) as substrate at 1 uM in presence of 32P-ATP by Hotspot assay relative to control; values are per cent of control"}, "[6]": {"biological_target": "Serine/threonine-protein kinase Nek4 (Homo sapiens) (UniProt P51957)", "sequence (P51957 whole entry, looked up)": "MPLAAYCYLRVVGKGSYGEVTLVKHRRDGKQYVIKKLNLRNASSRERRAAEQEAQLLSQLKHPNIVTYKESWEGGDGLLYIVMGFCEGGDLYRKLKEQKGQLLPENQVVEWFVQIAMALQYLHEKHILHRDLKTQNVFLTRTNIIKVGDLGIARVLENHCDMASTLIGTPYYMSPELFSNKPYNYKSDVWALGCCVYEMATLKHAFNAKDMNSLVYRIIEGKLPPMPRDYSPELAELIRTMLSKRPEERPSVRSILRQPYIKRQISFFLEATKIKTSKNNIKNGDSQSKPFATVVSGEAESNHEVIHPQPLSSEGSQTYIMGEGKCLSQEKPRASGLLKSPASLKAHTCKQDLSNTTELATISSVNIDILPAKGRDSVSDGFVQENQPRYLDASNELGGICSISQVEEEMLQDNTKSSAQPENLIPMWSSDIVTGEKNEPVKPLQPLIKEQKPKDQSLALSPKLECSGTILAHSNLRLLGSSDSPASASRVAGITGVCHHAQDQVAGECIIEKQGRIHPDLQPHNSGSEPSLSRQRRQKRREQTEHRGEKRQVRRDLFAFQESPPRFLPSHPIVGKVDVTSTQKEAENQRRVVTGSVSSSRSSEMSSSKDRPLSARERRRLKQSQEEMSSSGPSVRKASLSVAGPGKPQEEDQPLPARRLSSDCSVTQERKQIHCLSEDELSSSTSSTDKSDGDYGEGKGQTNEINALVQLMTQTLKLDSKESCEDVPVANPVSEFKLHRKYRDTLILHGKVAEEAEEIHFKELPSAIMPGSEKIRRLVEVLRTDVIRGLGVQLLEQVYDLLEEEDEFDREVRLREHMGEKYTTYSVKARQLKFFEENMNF", "assay": "Inhibition of human NEK4 using myelin basic protein as substrate at 1 uM in presence of 32P-ATP by Hotspot assay relative to control; values are per cent of control"}, "[7]": {"biological_target": "CDK6/cyclin D3 (Homo sapiens) (UniProt P30281+Q00534)", "assay": "Inhibition of human CDK6/cyclin D3 using RB Protein as substrate at 1 uM in presence of 32P-ATP by Hotspot assay relative to control; values are per cent of control"}, "[8]": {"species": "Homo sapiens", "assay": "Inhibition of human TAOK2/TAO1 using myelin basic protein as substrate at 1 uM in presence of 32P-ATP by Hotspot assay relative to control; values are per cent of control"}, "[9]": {"biological_target": "Mitogen-activated protein kinase 14 (Homo sapiens) (UniProt Q16539)", "sequence (Q16539 whole entry)": "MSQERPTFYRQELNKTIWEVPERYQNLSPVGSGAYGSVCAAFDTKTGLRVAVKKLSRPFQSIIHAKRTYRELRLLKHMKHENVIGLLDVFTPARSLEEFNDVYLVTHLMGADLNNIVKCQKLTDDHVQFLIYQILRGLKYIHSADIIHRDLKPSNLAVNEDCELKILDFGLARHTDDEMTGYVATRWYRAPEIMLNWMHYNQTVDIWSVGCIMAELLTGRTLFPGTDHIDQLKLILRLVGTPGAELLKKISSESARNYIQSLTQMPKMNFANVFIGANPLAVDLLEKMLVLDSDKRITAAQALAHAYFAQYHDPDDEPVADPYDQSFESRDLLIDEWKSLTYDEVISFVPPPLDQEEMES", "assay": "Inhibition of human P38a/MAPK14 using myelin basic protein as substrate at 1 uM in presence of 32P-ATP by Hotspot assay relative to control; values are per cent of control"}, "[10]": {"biological_target": "Receptor tyrosine-protein kinase erbB-4 (Homo sapiens) (UniProt Q15303)", "assay": "Inhibition of human ERBB4/HER4 using poly[Glu:Tyr] (4:1) as substrate at 1 uM in presence of 32P-ATP by Hotspot assay relative to control; values are per cent of control"}, "[11]": {"biological_target": "Serine/threonine-protein kinase PAK 2 (Homo sapiens) (UniProt Q13177)", "sequence (Q13177 whole entry)": "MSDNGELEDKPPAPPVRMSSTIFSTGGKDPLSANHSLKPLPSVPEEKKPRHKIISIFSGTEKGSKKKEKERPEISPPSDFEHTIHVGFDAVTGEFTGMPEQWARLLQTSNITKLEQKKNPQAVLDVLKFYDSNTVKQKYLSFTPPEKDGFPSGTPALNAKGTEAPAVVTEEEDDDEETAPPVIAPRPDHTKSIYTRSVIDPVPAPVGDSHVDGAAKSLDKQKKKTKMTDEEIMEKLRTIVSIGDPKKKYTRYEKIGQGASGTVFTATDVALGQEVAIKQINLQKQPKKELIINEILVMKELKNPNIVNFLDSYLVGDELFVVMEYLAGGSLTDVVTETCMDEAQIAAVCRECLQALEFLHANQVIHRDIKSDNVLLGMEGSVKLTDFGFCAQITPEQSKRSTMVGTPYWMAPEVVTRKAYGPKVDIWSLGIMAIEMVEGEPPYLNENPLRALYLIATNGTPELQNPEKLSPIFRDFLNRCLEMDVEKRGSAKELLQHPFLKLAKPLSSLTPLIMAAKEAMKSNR", "assay": "Inhibition of human PAK2 using RRRLSFAEPG as substrate at 1 uM in presence of 32P-ATP by Hotspot assay relative to control; values are per cent of control"}, "[12]": {"biological_target": "Protein kinase C theta type (Homo sapiens) (UniProt Q04759)", "sequence (Q04759 whole entry, looked up)": "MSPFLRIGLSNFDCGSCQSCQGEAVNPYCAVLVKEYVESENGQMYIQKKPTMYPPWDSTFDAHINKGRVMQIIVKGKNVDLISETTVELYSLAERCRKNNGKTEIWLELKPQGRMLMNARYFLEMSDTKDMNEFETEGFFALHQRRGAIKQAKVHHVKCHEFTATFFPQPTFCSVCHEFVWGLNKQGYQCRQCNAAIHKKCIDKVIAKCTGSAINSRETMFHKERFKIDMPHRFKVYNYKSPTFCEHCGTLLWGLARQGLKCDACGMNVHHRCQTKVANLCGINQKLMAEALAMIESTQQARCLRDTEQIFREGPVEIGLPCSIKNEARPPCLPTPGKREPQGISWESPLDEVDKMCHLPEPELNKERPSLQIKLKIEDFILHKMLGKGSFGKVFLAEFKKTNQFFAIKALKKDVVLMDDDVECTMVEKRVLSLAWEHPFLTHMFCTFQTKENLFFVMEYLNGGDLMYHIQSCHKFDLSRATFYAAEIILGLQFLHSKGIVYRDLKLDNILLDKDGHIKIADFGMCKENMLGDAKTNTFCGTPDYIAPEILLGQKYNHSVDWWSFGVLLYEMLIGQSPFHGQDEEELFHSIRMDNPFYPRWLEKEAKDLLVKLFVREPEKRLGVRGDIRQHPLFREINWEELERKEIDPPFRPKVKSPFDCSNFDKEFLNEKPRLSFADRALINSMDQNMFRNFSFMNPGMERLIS", "assay": "Residual activity of human PKCtheta using ERMRPRKRQGSVRRRV as substrate at 1 uM in presence of 32P-ATP by Hotspot assay relative to control"}}, "data": [{"smiles": "Cc1cc(-c2cnc(N)c3c(-c4ccc5scnc5c4)csc23)n(C)n1", "values": [{"measurement": "residual activity", "setting": "[1]", "result": 62.7, "unit": "%"}, {"measurement": "residual activity", "setting": "[2]", "result": 60.4, "unit": "%"}, {"measurement": "residual activity", "setting": "[3]", "result": 101, "unit": "%"}, {"measurement": "residual activity", "setting": "[4]", "result": 93.1, "unit": "%"}, {"measurement": "residual activity", "setting": "[5]", "result": 93.9, "unit": "%"}, {"measurement": "residual activity", "setting": "[6]", "result": 97.9, "unit": "%"}, {"measurement": "residual activity", "setting": "[7]", "result": 89.6, "unit": "%"}, {"measurement": "residual activity", "setting": "[8]", "result": 97.1, "unit": "%"}, {"measurement": "residual activity", "setting": "[9]", "result": 40.9, "unit": "%"}, {"measurement": "residual activity", "setting": "[10]", "result": 98.4, "unit": "%"}, {"measurement": "residual activity", "setting": "[11]", "result": 96.2, "unit": "%"}, {"measurement": "residual activity", "setting": "[12]", "result": 98.3, "unit": "%"}]}, {"smiles": "CC(C)S(=O)(=O)c1ccc2nccc(Nc3ccc4scnc4c3)c2c1", "values": [{"measurement": "residual activity", "setting": "[1]", "result": 42.8, "unit": "%"}, {"measurement": "residual activity", "setting": "[2]", "result": 86.3, "unit": "%"}, {"measurement": "residual activity", "setting": "[3]", "result": 97.1, "unit": "%"}, {"measurement": "residual activity", "setting": "[4]", "result": 96.5, "unit": "%"}, {"measurement": "residual activity", "setting": "[5]", "result": 90.7, "unit": "%"}, {"measurement": "residual activity", "setting": "[6]", "result": 95.6, "unit": "%"}, {"measurement": "residual activity", "setting": "[7]", "result": 88.3, "unit": "%"}, {"measurement": "residual activity", "setting": "[8]", "result": 93.4, "unit": "%"}, {"measurement": "residual activity", "setting": "[9]", "result": 91.5, "unit": "%"}, {"measurement": "residual activity", "setting": "[10]", "result": 89.3, "unit": "%"}, {"measurement": "residual activity", "setting": "[11]", "result": 101, "unit": "%"}, {"measurement": "residual activity", "setting": "[12]", "result": 92.8, "unit": "%"}]}, {"smiles": "CNC(=O)c1ccc2c(c1)ncn2-c1ccc(CC(=O)OC(C)(C)C)cc1", "values": [{"measurement": "residual activity", "setting": "[1]", "result": 96.7, "unit": "%"}, {"measurement": "residual activity", "setting": "[2]", "result": 90.1, "unit": "%"}, {"measurement": "residual activity", "setting": "[3]", "result": 93.7, "unit": "%"}, {"measurement": "residual activity", "setting": "[4]", "result": 99.8, "unit": "%"}, {"measurement": "residual activity", "setting": "[5]", "result": 97.7, "unit": "%"}, {"measurement": "residual activity", "setting": "[6]", "result": 96.3, "unit": "%"}, {"measurement": "residual activity", "setting": "[7]", "result": 51.5, "unit": "%"}, {"measurement": "residual activity", "setting": "[8]", "result": 102, "unit": "%"}, {"measurement": "residual activity", "setting": "[9]", "result": 95.8, "unit": "%"}, {"measurement": "residual activity", "setting": "[10]", "result": 93.8, "unit": "%"}, {"measurement": "residual activity", "setting": "[11]", "result": 91, "unit": "%"}, {"measurement": "residual activity", "setting": "[12]", "result": 104, "unit": "%"}]}]}
